Experimental data published in patent US9783496B2, “Oxindole compounds, solvent-free synthesis and use thereof” (Council of Scientific & Industrial Research, priority 2013, dated 2017).

These compounds were tested on M. smegmatis MC^2 155 strain (assay: Antitubercular activity: growth inhibition of M. smegmatis in 96 well microtiter plate (absorbance at 600 nm)). Settings: Mycolicibacterium smegmatis, MC^2155, final concentration of compound 30 μM, 32 hrs, determined against DMSO, triplicate, read-out: Percentage inhibition.
Format: cell-based, Mycobacterium smegmatis
Method: The compounds were tested for their Anti Mycobacterial ability on M. smegmatis MC^2 155 strain. The series of compounds were obtained in 10 mM stock concentrations. Further, each compound was diluted with the required 100% (v/v) DMSO to achieve a working concentration of 1.5 mM. The inoculum for the assay was prepared by reviving a glycerol stock in Middlebrook 7H9 broth supplemented with 0.1% Tween 80 and 0.5% Glycerol. At the time of inoculation, 10% ADS was added to the media and the culture was incubated in a shaker incubator at 37° C. and 200 rpm. The O.D. of the inoculum reached to 0.8-1 approximately, a secondary inoculum was inoculated and subsequently incubated. This was incubated overnight till the O.D. of the inoculum reached 0.4 approx., following which the inoculum was diluted 1:1000 times. In a 96 well microtiter plate, a 2 μL aliquot of the 1.5 mM dilution of compound was added to each well in triplicate, to which 98 μL of inoculum dilution was added, making the final concentration of compound 30 μM. To each plate a set of controls was added to better ascertain the activity of the compounds. These included DMSO, which was taken as a growth control, and media control (Blank) and Rifampicin and Isoniazid, which were taken as positive controls of inhibition of Mycobacterium smegmatis. After the completion of the period of 32 hrs, the absorbance of the inoculum in wells was measured at 600 nm using a Multi Mode Reader. Absorbance is considered directly proportional to the increase in growth of bacteria, thus it gives a measure of the growth of bacteria in each well. Percentage inhibition was determined against DMSO.
`CN1C(=O)C(OC(=O)c2ccco2)(C(=O)NC(C)(C)C)c2ccccc21` (stereo not shown) [Compound 4h, 3-(tert-Butylcarbamoyl)-1-methyl-2-oxoindolin-3-yl furan-2-carboxylate] showed an inhibition at 30 µM of 24.1%. Work on `COc1ccc(C(=O)OC2(C(=O)NC(C)(C)C)C(=O)N(C)c3ccccc32)cc1` (stereo not shown) [Compound 4g, 3-(tert-Butylcarbamoyl)-1-methyl-2-oxoindolin-3-yl 4-methoxy benzoate] yielded an inhibition at 30 µM of 43.5%. Work on `CN1C(=O)C(OC(=O)c2cccs2)(C(=O)NC(C)(C)C)c2ccccc21` (stereo not shown) [Compound 4i, 3-(tert-Butylcarbamoyl)-1-methyl-2-oxoindolin-3-yl thiophene-2-carboxylate] yielded an inhibition at 30 µM of 30.8%. With `CN1C(=O)C(OC(=O)c2ccccc2)(C(=O)NC2CCCCC2)c2ccccc21` (stereo not shown) the inhibition at 30 µM was -8.02%. `CN1C(=O)C(OC(=O)c2cc3ccccc3[nH]2)(C(=O)NC(C)(C)C)c2ccccc21` (stereo not shown) showed an inhibition at 30 µM of 9%. `CN1C(=O)C(OC(=O)c2ccccc2F)(C(=O)NC(C)(C)C)c2ccccc21` (stereo not shown) [Compound 4b, 3-(tert-Butylcarbamoyl)-1-methyl-2-oxoindolin-3-yl 2-fluoro benzoate] was tested, and the inhibition at 30 µM was 24.6%. `CCC(=O)OC1(C(=O)NC(C)(C)C)C(=O)N(C)c2ccccc21` (stereo not shown) [Compound 4o, 3-(tert-Butylcarbamoyl)-1-methyl-2-oxoindolin-3-yl propionate] gave an inhibition at 30 µM of -1.64%. With `CCOC(=O)CNC(=O)C1(OC(=O)c2ccccc2)C(=O)N(C)c2ccccc21` (stereo not shown) the inhibition at 30 µM was 14.7%. `CC(C)NC(=O)C1(OC(=O)c2ccccc2)C(=O)N(C)c2ccccc21` (stereo not shown) was tested, and the inhibition at 30 µM was -5.24%. `CN1C(=O)C(OC(=O)c2ccccc2Cl)(C(=O)NC(C)(C)C)c2ccccc21` (stereo not shown) [Compound 4c, 3-(tert-Butylcarbamoyl)-1-methyl-2-oxoindolin-3-yl 2-chloro benzoate] gave an inhibition at 30 µM of 42.7%. `CN1C(=O)C(OC(=O)c2ccccc2Br)(C(=O)NC(C)(C)C)c2ccccc21` (stereo not shown) [Compound 4d, 3-(tert-butylcarbamoyl)-1-methyl-2-oxoindolin-3-yl 2-bromo benzoate] showed an inhibition at 30 µM of 17.3%. In the case of `CN1C(=O)C(OC(=O)c2ccc([N+](=O)[O-])cc2)(C(=O)NC(C)(C)C)c2ccccc21` (stereo not shown) [Compound 4f, 3-(tert-Butylcarbamoyl)-1-methyl-2-oxoindolin-3-yl 4-nitro benzoate], the inhibition at 30 µM is reported as 21.5%. Work on `C=CCN1C(=O)C(OC(=O)c2ccccc2)(C(=O)NC(C)(C)C)c2ccccc21` (stereo not shown) [Compound 4r, 1-Allyl-3-(tert-Butylcarbamoyl)-2-oxoindolin-3-yl benzoate] yielded an inhibition at 30 µM of 35.4%. `CN1C(=O)C(OC(=O)c2ccccc2)(C(=O)NC(C)(C)C)c2ccccc21` (stereo not shown) [Compound 4a, 3-(tert-Butylcarbamoyl)-1-methyl-2-oxoindolin-3-yl benzoate] showed an inhibition at 30 µM of 18.6%. In the case of `CN1C(=O)C(OC(=O)c2ccccc2)(C(=O)NC(C)(C)C)c2cc(Br)ccc21` (stereo not shown) [Compound 4w, 5-Bromo-3-(tert-Butylcarbamoyl)-1-methyl-2-oxoindolin-3-yl benzoate], the inhibition at 30 µM is reported as 23.4%. `CN1C(=O)C(OC(=O)c2cccc([N+](=O)[O-])c2)(C(=O)NC(C)(C)C)c2ccccc21` (stereo not shown) [Compound 4e, 3-(tert-Butylcarbamoyl)-1-methyl-2-oxoindolin-3-yl 3-nitro benzoate] showed an inhibition at 30 µM of -5.24%. In the case of `CC(=O)OC1(C(=O)NC(C)(C)C)C(=O)N(C)c2ccccc21` (stereo not shown) [Compound 4n, 3-(tert-Butylcarbamoyl)-1-methyl-2-oxoindolin-3-yl acetate], the inhibition at 30 µM is reported as 19.6%. Compound `CC(C)(C)NC(=O)C1(OC(=O)c2ccccc2)C(=O)Nc2ccccc21` (stereo not shown) [Compound 4s, 3-(tert-Butylcarbamoyl)-2-oxoindolin-3-yl benzoate] has an inhibition at 30 µM of 19.1%. `CN1C(=O)C(OC(=O)c2ccccc2)(C(=O)NC(C)(C)C)c2cc(Cl)ccc21` (stereo not shown) [Compound 4v, 3-(tert-Butylcarbamoyl)-5-chloro-1-methyl-2-oxoindolin-3-yl benzoate] showed an inhibition at 30 µM of 9.49%. `CN1C(=O)C(OC(=O)c2ccccc2)(C(=O)NC(C)(C)C)c2cc(F)ccc21` (stereo not shown) [Compound 4u, 3-(tert-Butylcarbamoyl)-5-fluoro-1-methyl-2-oxoindolin-3-yl benzoate] gave an inhibition at 30 µM of 5.24%. In the case of `CN1C(=O)C(OC(=O)c2cc3ccccc3o2)(C(=O)NC(C)(C)C)c2ccccc21` (stereo not shown), the inhibition at 30 µM is reported as 26.4%. In the case of `CC(C)(C)NC(=O)C1(OC(=O)c2ccccc2)C(=O)N(Cc2ccccc2)c2ccccc21` (stereo not shown) [Compound 4q, 1-Benzyl-3-(tert-Butylcarbamoyl)-2-oxoindolin-3-yl benzoate], the inhibition at 30 µM is reported as 42.9%. Compound `COc1ccc(CC(=O)OC2(C(=O)NC(C)(C)C)C(=O)N(C)c3ccccc32)cc1` (stereo not shown) has an inhibition at 30 µM of 44.2%. With `CN1C(=O)C(OC(=O)c2ccccn2)(C(=O)NC(C)(C)C)c2ccccc21` (stereo not shown) the inhibition at 30 µM was 5.24%. Work on `CN1C(=O)C(OC(=O)/C=C/c2ccccc2)(C(=O)NC(C)(C)C)c2ccccc21` (stereo not shown) yielded an inhibition at 30 µM of 7.04%.
